Results: patent US9113629B2, “4-amino-6-(4-substituted-phenyl)-picolinates and 6-amino-2-(4-substituted-phenyl)-pyrimidine-4-carboxylates and their use as herbicides” (DOW AGROSCIENCES LLC, priority 2013, dated 2015)
Read-outs that look alike come from different tables or passages of the source.

Key:
[1] = test system: Key Broadleaf Weed and Crop Species; assay: Post-emergent Test II herbicidal activity (Table 5); type: in vivo; conditions: post-emergence, 336 h, 14 days after application; for pest or weed control at 70 g/ha: application rate 70 g ai/ha; for pest or weed control at 140 g/ha: application rate 140 g ai/ha
Outline: (§1)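 Spray rates: a highest rate plus ½×, ¼×, ⅛×, 1/16×, all delivered at 187 L/ha to plants at the first–second true leaf stage. Readout is a visual percent injury score at 14 d, where 100 means complete kill.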

[2] = test system: Key Grass and Sedge Weeds as well as Grass Crops; assay: Post-emergent Test II herbicidal activity (Table 6); type: in vivo; conditions: post-emergence, 336 h; for pest or weed control at 70 g/ha: 70 g ai/ha; for pest or weed control at 140 g/ha: 140 g ai/ha
Outline: as §1

[3] = ABUTH: velvetleaf (Abutilon theophrasti), read-out: Visual Growth Reduction (%) 14 Days After Application, ABUTH
[4] = AMARE: redroot pigweed (Amaranthus retroflexus), read-out: Visual Growth Reduction (%) 14 Days After Application, AMARE
[5] = BRSNN: oilseed-rape, canola (Brassica napus), read-out: Visual Growth Reduction (%) 14 Days After Application, BRSNN
[6] = CHEAL: lambsquarters (Chenopodium album), read-out: Visual Growth Reduction (%) 14 Days After Application, CHEAL
[7] = EPHHL: wild poinsettia (Euphorbia heterophylla), read-out: Visual Growth Reduction (%) 14 Days After Application, EPHHL
[8] = HELAN: sunflower (Helianthus annuus), read-out: Visual Growth Reduction (%) 14 Days After Application, HELAN
[9] = VIOTR: wild pansy (Viola tricolor), read-out: Visual Growth Reduction (%) 14 Days After Application, VIOTR
[10] = CYPES: yellow nutsedge (Cyperus esculentus), read-out: Visual Growth Reduction (%) 14 Days After Application, CYPES
[11] = DIGSA: crabgrass (Digitaria sanguinalis), read-out: Visual Growth Reduction (%) 14 Days After Application, DIGSA
[12] = ECHCG: barnyardgrass (Echinochloa crus-galli), read-out: Visual Growth Reduction (%) 14 Days After Application, ECHCG
[13] = ORYSA: rice (Oryza sativa), crop, read-out: Visual Growth Reduction (%) 14 Days After Application, ORYSA
[14] = SETFA: giant foxtail (Setaria faberi), read-out: Visual Growth Reduction (%) 14 Days After Application, SETFA
[15] = SORVU: grain sorghum (Sorghum vulgare), read-out: Visual Growth Reduction (%) 14 Days After Application, SORVU
[16] = TRZSS (wheat, Triticum aestivum), crop, read-out: Visual Growth Reduction (%) 14 Days After Application, TRZSS
[17] = ZEAMX: maize, corn (Zea mays), crop, read-out: Visual Growth Reduction (%) 14 Days After Application, ZEAMX

| SMILES | pest or weed control at 70 g/ha [1, 3] | pest or weed control at 140 g/ha [1, 3] | pest or weed control at 70 g/ha [1, 4] | pest or weed control at 140 g/ha [1, 4] | pest or weed control at 70 g/ha [1, 5] | pest or weed control at 140 g/ha [1, 5] | pest or weed control at 70 g/ha [1, 6] | pest or weed control at 140 g/ha [1, 6] | pest or weed control at 70 g/ha [1, 7] | pest or weed control at 140 g/ha [1, 7] | pest or weed control at 140 g/ha [1, 8] | pest or weed control at 70 g/ha [1, 9] | pest or weed control at 140 g/ha [1, 9] | pest or weed control at 70 g/ha [2, 10] | pest or weed control at 140 g/ha [2, 10] | pest or weed control at 70 g/ha [2, 11] | pest or weed control at 140 g/ha [2, 11] | pest or weed control at 70 g/ha [2, 12] | pest or weed control at 140 g/ha [2, 12] | pest or weed control at 70 g/ha [2, 13] | other results |
| --- | --- | --- | --- | --- | --- | --- | --- | --- | --- | --- | --- | --- | --- | --- | --- | --- | --- | --- | --- | --- | --- |
| C#Cc1ccc(-c2nc(C(=O)O)c(Cl)c(N)c2F)cc1F [Compound 71] | 0 to 29% | 45 to 59% | 60 to 74% | 75 to 84% | 45 to 59% | 45 to 59% | 85 to 94% | 85 to 94% | 95 to 100% | 95 to 100% | 75 to 84% | 0 to 29% | 0 to 29% | 0 to 29% | 0 to 29% | 60 to 74% | 45 to 59% | 85 to 94% | 85 to 94% | 0 to 29% | pest or weed control at 70 g/ha [1, 8]: 60 to 74%; pest or weed control at 140 g/ha [2, 13]: 0 to 29%; pest or weed control at 70 g/ha [2, 14]: 60 to 74%; pest or weed control at 140 g/ha [2, 14]: 60 to 74%; pest or weed control at 70 g/ha [2, 15]: 30 to 44%; pest or weed control at 140 g/ha [2, 15]: 45 to 59%; pest or weed control at 70 g/ha [2, 16]: 30 to 44%; pest or weed control at 140 g/ha [2, 16]: 45 to 59%; pest or weed control at 70 g/ha [2, 17]: 95 to 100%; pest or weed control at 140 g/ha [2, 17]: 95 to 100%; melting point: 157 to 160 °C (dec.) |
| COc1c(N)nc(-c2ccc(I)cc2F)nc1C(=O)O [Compound 72] | 85 to 94% | 85 to 94% | 95 to 100% | 95 to 100% | 85 to 94% | 85 to 94% | 95 to 100% | 95 to 100% | 95 to 100% | 95 to 100% | 95 to 100% | 60 to 74% | 60 to 74% | 0 to 29% | 95 to 100% | 45 to 59% | 60 to 74% | 95 to 100% | 95 to 100% | 0 to 29% | pest or weed control at 70 g/ha [1, 8]: 95 to 100%; pest or weed control at 140 g/ha [2, 13]: 0 to 29%; pest or weed control at 70 g/ha [2, 14]: 45 to 59%; pest or weed control at 140 g/ha [2, 14]: 75 to 84%; pest or weed control at 70 g/ha [2, 15]: 85 to 94%; pest or weed control at 140 g/ha [2, 15]: 95 to 100%; pest or weed control at 70 g/ha [2, 16]: 60 to 74%; pest or weed control at 140 g/ha [2, 16]: 60 to 74%; pest or weed control at 70 g/ha [2, 17]: 60 to 74%; pest or weed control at 140 g/ha [2, 17]: 60 to 74%; melting point: 95 to 98 °C |
| COC(=O)c1nc(-c2ccc(I)cc2F)nc(N)c1OC [Compound 82] | 95 to 100% | 95 to 100% | 95 to 100% | 95 to 100% | 85 to 94% | 85 to 94% | 85 to 94% | 95 to 100% | 95 to 100% | 95 to 100% | 95 to 100% | 60 to 74% | 75 to 84% | 95 to 100% | 95 to 100% | 0 to 29% | 0 to 29% | 45 to 59% | 85 to 94% | 0 to 29% | pest or weed control at 70 g/ha [1, 8]: 95 to 100%; pest or weed control at 140 g/ha [2, 13]: 0 to 29%; pest or weed control at 70 g/ha [2, 14]: 0 to 29%; pest or weed control at 140 g/ha [2, 14]: 0 to 29%; pest or weed control at 70 g/ha [2, 15]: 0 to 29%; pest or weed control at 140 g/ha [2, 15]: 45 to 59%; pest or weed control at 70 g/ha [2, 16]: 30 to 44%; pest or weed control at 140 g/ha [2, 16]: 30 to 44%; pest or weed control at 70 g/ha [2, 17]: 95 to 100%; pest or weed control at 140 g/ha [2, 17]: 95 to 100%; melting point: 159 to 162 °C |
| C#Cc1ccc(-c2nc(N)c(OC)c(C(=O)OC)n2)c(F)c1F [Compound 84] | 0 to 29% | 0 to 29% | 0 to 29% | 0 to 29% | 0 to 29% | 0 to 29% | 0 to 29% | 0 to 29% | 0 to 29% | 0 to 29% | 60 to 74% | 0 to 29% | 0 to 29% | 0 to 29% | 0 to 29% | 0 to 29% | 0 to 29% | 0 to 29% | 0 to 29% | 0 to 29% | pest or weed control at 140 g/ha [2, 13]: 0 to 29%; pest or weed control at 70 g/ha [2, 14]: 0 to 29%; pest or weed control at 140 g/ha [2, 14]: 0 to 29%; pest or weed control at 70 g/ha [2, 15]: 0 to 29%; pest or weed control at 140 g/ha [2, 15]: 0 to 29%; pest or weed control at 70 g/ha [2, 16]: 0 to 29%; pest or weed control at 140 g/ha [2, 16]: 0 to 29%; pest or weed control at 70 g/ha [2, 17]: 0 to 29%; pest or weed control at 140 g/ha [2, 17]: 0 to 29%; melting point: 214 to 217 °C |
| COc1c(N)nc(-c2ccc(I)c(F)c2F)nc1C(=O)O [Compound 89] | 85 to 94% | 95 to 100% | 85 to 94% | 95 to 100% | 95 to 100% | 95 to 100% | 95 to 100% | 95 to 100% | 95 to 100% | 95 to 100% | 95 to 100% | 95 to 100% | 95 to 100% | 45 to 59% | 95 to 100% | 45 to 59% | 60 to 74% | 85 to 94% | 85 to 94% | 0 to 29% | pest or weed control at 70 g/ha [1, 8]: 95 to 100%; pest or weed control at 140 g/ha [2, 13]: 60 to 74%; pest or weed control at 70 g/ha [2, 14]: 85 to 94%; pest or weed control at 140 g/ha [2, 14]: 85 to 94%; pest or weed control at 70 g/ha [2, 15]: 85 to 94%; pest or weed control at 140 g/ha [2, 15]: 95 to 100%; pest or weed control at 70 g/ha [2, 16]: 0 to 29%; pest or weed control at 140 g/ha [2, 16]: 45 to 59%; pest or weed control at 70 g/ha [2, 17]: 45 to 59%; pest or weed control at 140 g/ha [2, 17]: 95 to 100%; melting point: 119 to 121 °C |
